“Also recorded” adds a separate entry of the source.
Columns and labels:
[1] = system: swine exposed to 2.5 ATA hyperbaric oxygen for 5.5 hr; test: Experiment 2: heart rate variability (SDNN); format: in vivo; conditions: 2.5 ATA O2 5.5 hr; mean+/−SEM; p=0.0331 vs saline
Method: The swine were prepared for ECG recording as described previously. Briefly, using an electric shaver, ECG areas were prepared bilaterally, posterior to the shoulder, lateral to the vertebrae, at approximately 4-7 cm above ribs 5-7 (bipolar derivation). Another area was prepared 2 cm lateral to the vertebrae on right side, between ribs 12-13. Newly exposed skin was rubbed with isopropyl alcohol. Disposable pre-wired (Grass Technologies/Astro-Med, Inc. Warwick, Mass.) or SF405 (KENDALL MEDI-TRACE™, Tyco Healthcare, Mansfield, Mass.) self-adhesive Ag/AgCl electrodes were placed on the proximal, symmetric sites and the ground electrode was placed at the distal site (between ribs 12-13). […]
Wideband AC amplifiers (Grass, Quincy, Mass.) were used for EEG and ECG recordings; a 0.5-35 Hz and 60 cycle notch filter setting was used. […] Heart rate variability (HRV) was calculated from pre-dive ECG epochs of at least 2 min durations using the Labchart ECG tool suite. […] Above the manually set trigger level the LabChart software looked for maximum values and measured the time interval between peaks (maximal amplitude of R-wave). […] The length of measured periods were: (1) 114.995 sec; peak-to-peak distance 0.750 t 0.0004 sec; 153 peaks; FFT 1.329 Hz=79.74 bpm; and (2) 326.52 sec; peak-to-peak distance 0.750±0.0003; 434 peaks; FFT 1.332 Hz=79.92 bpm. […]

[2] = system: swine exposed to 2.5 ATA hyperbaric oxygen for 5.5 hr; test: Experiment 2 deep exposure simulation: pulmonary compliance; format: in vivo
Method: Experiment 2 is designed to evaluate the efficacy of tiotropium bromide pre-dive with respect to reducing decrements in pulmonary function due to PO2T following a 5.5 hour, 2.5 ATA hyperbaric oxygen exposure. This dive profile was selected because it caused the most significant pulmonary function deficits in humans with minimal risk of seizure due to CNS oxygen toxicity.
Pulmonary function testing: The swine had disposable prewired electrodes adhered to the dermis over the gluteal muscle and a train of four (TOF) stimulation was initiated to confirm proper placement and twitch using a DigiStim III Peripheral Nerve Stimulator (Neuro Technology Inc., Kerrville, Tex.). Atracurium besylate (50 mg, IV) (hospira, Lake Forest, Ill.) was injected into the ear vein catheter, and the swine was observed until cessation of muscle twitch with TOFs. The swine was then disconnected from the ventilator circuit, allowed to passively exhale, and connected to an O2 filled 3 L super syringe (Hamilton Company, Reno, Nev.) attached to a pressure gauge (OMEGA®, Norwalk, Conn.), and pneumotachometer (Harvard Apparatus, Holliston, Mass.). Oxygen was introduced in 100 ml increments every 3 seconds until a static pressure of 40 cm H2O was reached. The lungs were then deflated in 100 ml increments until a static pressure of −40 cm H2O. The swine was then reconnected to the ventilator and ventilated for 2 minutes before repeating the insufflation and exhalation maneuvers and measurements one more time. […] After the above measurements, swine received either nebulized Tiotropium (18 μg dissolved in saline) or an equal volume of 0.9% saline through the breathing circuit over the course of 15 minutes. The propofol infusion was then stopped, the animals were then monitored until a swallow reflex was observed then extubated. The swine were then transported to the hyperbaric chamber suite and allowed to recover until capable of standing.
Hyperbaric Exposures: Individual animals were then placed into a Plexiglas box (30 in.×42 in.×38 in., manufactured in-house) within a Multiple Large Animal Chamber (MLAC), which is a steel-hulled hyperbaric chamber (450-cubic ft. floodable volume and pressure tested to 1,230 feet of seawater [fsw] equivalent) (Bethlehem Steel Corp, Bethlehem Pa.). Pressure/depth was monitored by a CPG 2500 Digital Pressure Gauge (Mensor Corp., San Marcos, Tex.). Swine were dove in pairs with each treatment group represented. Swine box assignment was alternated with respect to treatment to avoid any effects associated with individual box environmental features. Animals were monitored via closed-circuit television to observe signs of distress related to middle ear barotrauma (e.g. head shaking, nystagmus) and seizure activity. Oxygen concentration was measured and recorded using a portable O2 analyzer (Teledyne Analytical Inst, City of Industry, Calif.). After positioning the animal inside the Plexiglas box, the MLAC was sealed and pressurized using air at the rate of I ATA/minute to a depth of 2.5 ATA. After 2.5 min at a bottom depth equivalent to 2.5 ATA, the breathing gas was switched to 100% O2 and maintained for 5.5 Hrs. After completing 5.5 Hrs on 100% O2, the inspired gas was switched back to air for 3 min. Then, the chamber was decompressed at 1 ATA/minute. Upon reaching surface the animal was transported to the surgical suite for post-dive ECG and pulmonary function measurements (identical to the pre-dive procedures). […]

## C[N+]1(C)[C@@H]2C[C@@H](OC(=O)C(O)(c3cccs3)c3cccs3)C[C@H]1[C@@H]1O[C@@H]12 [Tiotropium, tiotropium bromide]
[1]
  Post-dive SDNN normalized to the pre-dive SDNN: 103.5+/−15.87
[2]; 2.5 ATA O2 5.5 hr, 1st set of measurements, n=7, p=0.1999
  pulmonary compliance, inspiratory arm, post-exposure vs baseline: no significant difference
[2]; 2.5 ATA O2 5.5 hr, 1st set of measurements, n=7, p=0.5711
  expiratory compliance, post-exposure vs baseline: did not exhibit any decrement
[2]; 2.5 ATA O2 5.5 hr, 2nd set of measurements, n=9, p=0.0438
  pulmonary compliance, expiratory arm, post-exposure vs baseline: significant decrement
[2]; 2.5 ATA O2 5.5 hr, 2nd set of measurements, n=9, p=0.7388
  pulmonary compliance, inspiratory arm, post-exposure vs baseline: no significant change
[2]; 2.5 ATA for 5.5 hrs, 18 μg inhaled, nebulized, prophylactic, p=0.9094
  pulmonary compliance after hyperbaric oxygen exposure: no decrement in pulmonary compliance; also recorded: no change
